Key:
VMAT2 [1] = target: VMAT2 (Rattus norvegicus, UniProt Q01827); type: cell-based; details: for inhibitory effect on VMAT2 transport (FFN206 uptake) in screen: tested compound 10 µM, FFN206 1 µM, 30 min preincubation, 60 min uptake
VMAT2-HEK cells = assay: Fluorescence microscopy of FFN206 accumulation in VMAT2-HEK cells; type: cell-based, human
VMAT = details: cited from earlier work; for IC50: read-out: IC50, inhibiting [3H]DA uptake, rat brain vesicles
VMAT2 [2] = details: endogenous substrate; cited from earlier work

Chain of VMAT2 (Rattus norvegicus, UniProt Q01827) (Q01827 whole entry): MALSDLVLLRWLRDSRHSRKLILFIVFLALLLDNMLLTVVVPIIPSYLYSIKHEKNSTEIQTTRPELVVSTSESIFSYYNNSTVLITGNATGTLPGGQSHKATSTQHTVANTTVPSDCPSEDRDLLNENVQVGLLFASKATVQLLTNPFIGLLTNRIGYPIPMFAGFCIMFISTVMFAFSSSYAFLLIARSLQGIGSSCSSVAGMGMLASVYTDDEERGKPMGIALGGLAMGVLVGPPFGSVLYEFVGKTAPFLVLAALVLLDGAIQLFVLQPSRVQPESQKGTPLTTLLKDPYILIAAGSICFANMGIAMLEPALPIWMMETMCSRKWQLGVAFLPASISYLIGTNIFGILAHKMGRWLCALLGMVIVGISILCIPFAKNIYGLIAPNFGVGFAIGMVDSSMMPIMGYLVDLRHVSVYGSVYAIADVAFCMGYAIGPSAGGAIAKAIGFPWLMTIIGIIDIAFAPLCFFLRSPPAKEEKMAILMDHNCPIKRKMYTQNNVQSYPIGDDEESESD

Row | SMILES | inhibitory effect on VMAT2 transport (FFN206 uptake) in screen (VMAT2 [1]) | activity in inhibiting vesicular uptake of [3H]DA by VMAT (VMAT) | other results
1 | CCN(CC)CCCC(C)Nc1ccnc2cc(Cl)ccc12 (stereo not shown) [Chloroquine, chloroquine] | reduces VMAT2-dependent uptake | – | effect on punctate FFN206 fluorescence signal (VMAT2-HEK cells; 100 µM, within 3 minutes of treatment, cells pre-loaded with FFN206 5 µM): completely abolished
2 | C[C@H](N)Cc1ccccc1 [S(+)-amphetamine] | – | – | IC50 (VMAT): 3.27 µM
3 | c1ccc(CN2CCNCC2)cc1 [benzylpiperazine] | no or weak inhibitory effects | inactive | –
4 | COC(=O)[C@H]1[C@@H](OC(=O)c2ccccc2)C[C@@H]2CC[C@H]1N2C [cocaine] | no or weak inhibitory effects | inactive | inhibition of FFN206 uptake (negative control) (VMAT2 [1]; 96-well fluorometric assay, VMAT2-HEK cells): no detectable inhibition
5 | CCN(CC)C(C)C(=O)c1ccccc1 (stereo not shown) [diethylpropion] | no or weak inhibitory effects | inactive | –
6 | COc1cc2c(cc1OC)C1CC(=O)C(CC(C)C)CN1CC2 (stereo not shown) [TBZ, tetrabenazine] | – | – | FFN206 uptake in VMAT2-HEK cells pre-treated with inhibitor (VMAT2-HEK cells; inhibitor 2 µM, 1 hr preincubation then coincubation, FFN206 5 µM, 2 hr): Negligible uptake of FFN206
7 | NCCc1ccc(O)c(O)c1 [dopamine] | – | – | IC50 (VMAT2 [2]): 0.92 ± 0.05 µM; Km (VMAT2 [2]): 0.82 to 0.95 µM
8 | CC(C)(N)Cc1ccccc1 [phentermine] | no or weak inhibitory effects | inactive | –
9 | C[C@@H](N)Cc1ccccc1 [R(−)-amphetamine] | – | – | IC50 (VMAT): 29 µM
